In the supplement of paper PMC10883282:

Tests used:
Assay in all cases: relative viability vs DMSO control (72 h) (fraction); higher = more viable cells
[1] = system: HT1080
In short: (§1)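 Relative viability was measured with ATPLite and expressed as percent growth, averaged across up to triplicate wells. Sarcoma cell lines had been seeded in 384-well plates to reach 80–90% confluence, dosed after 24 h, and incubated 72 h at 37 °C, 5% CO2. All data were rescaled on a scale where 1 is full and 0 is none.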

[2] = system: MES-SA
In short: as §1

[3] = system: SW684
In short: as §1

[4] = system: KHOS-NP
In short: as §1

[5] = system: VA-ES-BJ
In short: as §1

[6] = system: SK-LMS-1
In short: as §1

[7] = system: SW872
In short: as §1

[8] = system: SK-ES-1
In short: as §1

[9] = system: G401
In short: as §1

[10] = system: SW1353
In short: as §1

[11] = system: RD-ES
In short: as §1

[12] = system: RD
In short: as §1

CN(C)C[C@@H]1CCn2cc(c3ccccc32)C2=C(C(=O)NC2=O)c2cn(c3ccccc23)CCO1 [Ruboxistaurin]
Conditions | relative viability
[1], 0.00017 µM | 1.06
[1], 0.00051 µM | 1.1
[1], 0.00152 µM | 1.05
[1], 0.00457 µM | 1.04
[1], 0.01372 µM | 1.05
[1], 0.04115 µM | 1.06
[1], 0.1235 µM | 1.08
[1], 0.3704 µM | 1.03
[1], 1.111 µM | 1.08
[1], 3.333 µM | 1.12
[1], 10 µM | 0.904
[2], 0.00017 µM | 0.918
[2], 0.00051 µM | 0.909
[2], 0.00152 µM | 0.9276
[2], 0.00457 µM | 0.9006
[2], 0.01372 µM | 0.923
[2], 0.04115 µM | 0.91
[2], 0.1235 µM | 0.898
[2], 0.3704 µM | 0.887
[2], 1.111 µM | 0.84
[2], 3.333 µM | 0.7551
[2], 10 µM | 0.428
[3], 0.00017 µM | 1.12
[3], 0.00051 µM | 1.157
[3], 0.00152 µM | 1.158
[3], 0.00457 µM | 1.17
[3], 0.01372 µM | 1.16
[3], 0.04115 µM | 1.11
[3], 0.1235 µM | 1.15
[3], 0.3704 µM | 1.16
[3], 1.111 µM | 1.14
[3], 3.333 µM | 1.15
[3], 10 µM | 0.857
[4], 0.00017 µM | 1.09
[4], 0.00051 µM | 1.09
[4], 0.00152 µM | 1.06
[4], 0.00457 µM | 1.07
[4], 0.01372 µM | 1.06
[4], 0.04115 µM | 1.08
[4], 0.1235 µM | 1.073
[4], 0.3704 µM | 1.093
[4], 1.111 µM | 1.1
[4], 3.333 µM | 1.073
[4], 10 µM | 1.045
[5], 0.00017 µM | 0.988
[5], 0.00051 µM | 0.999
[5], 0.00152 µM | 0.984
[5], 0.00457 µM | 0.988
[5], 0.01372 µM | 0.982
[5], 0.04115 µM | 0.996
[5], 0.1235 µM | 0.9734
[5], 0.3704 µM | 0.945
[5], 1.111 µM | 0.861
[5], 3.333 µM | 0.825
[5], 10 µM | 0.651
[6], 0.00017 µM | 1.05
[6], 0.00051 µM | 1.02
[6], 0.00152 µM | 1.05
[6], 0.00457 µM | 1.05
[6], 0.01372 µM | 1.09
[6], 0.04115 µM | 1.08
[6], 0.1235 µM | 1.05
[6], 0.3704 µM | 0.995
[6], 1.111 µM | 0.922
[6], 3.333 µM | 0.778
[6], 10 µM | 0.4619
[7], 0.00017 µM | 1
[7], 0.00051 µM | 1.04
[7], 0.00152 µM | 1.02
[7], 0.00457 µM | 1.06
[7], 0.01372 µM | 0.989
[7], 0.04115 µM | 1.04
[7], 0.1235 µM | 1.01
[7], 0.3704 µM | 1.02
[7], 1.111 µM | 0.9094
[7], 3.333 µM | 0.846
[7], 10 µM | 0.599
[8], 0.00017 µM | 1.03
[8], 0.00051 µM | 1.06
[8], 0.00152 µM | 1.07
[8], 0.00457 µM | 1.08
[8], 0.01372 µM | 1.07
[8], 0.04115 µM | 1.02
[8], 0.1235 µM | 1.01
[8], 0.3704 µM | 0.963
[8], 1.111 µM | 0.869
[8], 3.333 µM | 0.74
[8], 10 µM | 0.421
[9], 0.00017 µM | 1.03
[9], 0.00051 µM | 1.01
[9], 0.00152 µM | 0.988
[9], 0.00457 µM | 1.01
[9], 0.01372 µM | 1.02
[9], 0.04115 µM | 0.961
[9], 0.1235 µM | 1.02
[9], 0.3704 µM | 1.01
[9], 1.111 µM | 0.958
[9], 3.333 µM | 0.938
[9], 10 µM | 0.0283
[10], 0.00017 µM | 1.02
[10], 0.00051 µM | 1.01
[10], 0.00152 µM | 0.983
[10], 0.00457 µM | 0.99
[10], 0.01372 µM | 0.975
[10], 0.04115 µM | 0.994
[10], 0.1235 µM | 0.961
[10], 0.3704 µM | 0.977
[10], 1.111 µM | 0.894
[10], 3.333 µM | 0.827
[10], 10 µM | 0.252
[11], 0.00017 µM | 0.981
[11], 0.00051 µM | 0.993
[11], 0.00152 µM | 0.9893
[11], 0.00457 µM | 0.988
[11], 0.01372 µM | 0.952
[11], 0.04115 µM | 0.978
[11], 0.1235 µM | 0.956
[11], 0.3704 µM | 0.993
[11], 1.111 µM | 0.96
[11], 3.333 µM | 0.862
[11], 10 µM | 0.0404
[12], 0.00017 µM | 1.09
[12], 0.00051 µM | 1.09
[12], 0.00152 µM | 1.11
[12], 0.00457 µM | 1.12
[12], 0.01372 µM | 1.11
[12], 0.04115 µM | 1.1
[12], 0.1235 µM | 1.12
[12], 0.3704 µM | 1.1
[12], 1.111 µM | 1.127
[12], 3.333 µM | 1.08
[12], 10 µM | 0.857
